Like-named read-outs stand apart in the source and are kept apart here.
How the values were obtained:
[1] = system: SW620 (Dukes' Type C, Grade IV invasive colorectal adenocarcinoma); experiment: MTT cytotoxicity, SW620 cells; conditions: for CC50: Homo sapiens; for Index of selectivity MCRT / SW620: IS = CC50 MCRT ÷ CC50 SW620; for Index of selectivity PBMC / SW620: IS = CC50 PBMC ÷ CC50 SW620
Description: (§1) The compounds were solubilized in dimethyl sulfoxide (DMSO, Fischer Chemical, NJ, USA) at 50,000 μg/mL and stored at −20°C until use. From the stock solution, six serial 1:2 double dilutions of each compound were prepared to start with concentrations of 100, 50, 25, 12.5, 6.25, and 3.125 μg/mL, respectively. 5-FU, one of the conventional drugs to treat CRC [34], was used as an antitumor compound control at concentrations ranging between 800 and 0.625 μM.
(§2) SW948 (Dukes' Type C, Grade III, premetastatic colorectal adenocarcinoma—CCL-237), SW48 (Dukes' Type C, Grade IV, noninvasive colorectal adenocarcinoma—CCL231), and SW620 (Dukes' Type C, Grade IV invasive colorectal adenocarcinoma—CCL227) (American Type Culture Collection Manassas, VA, USA) were maintained in standard conditions at 37°C, without a CO2 atmosphere. PBMCs and MCRT were used as nontumoral control cells. PBMCs were obtained by healthy donors, separated using Histopaque-1077 (Sigma-Aldrich) and cultured in RPMI-1640 medium (Sigma-Aldrich) supplemented with 10% SFB and 1% penicillin/streptomycin [46]. In turn, MCRT were obtained from healthy BALB/c mice; for this, mice were euthanized with CO2 after previous sedation, the colorectal tissue removed, cleaned up, and cut into 2 × 2 mm pieces, suspended in supplemented DMEM, and used immediately after collection. […] Moreover, the inclusion of PBMC also served to assess the systemic toxicity of FQAS.
(§3) The cytotoxic activity of synthesized FQASs and QASs was studied by measuring cell viability/mortality, determined with the MTT (3-(4,5-dimethylthiazol-2-yl)-2,5-diphenyl tetrazole bromide) method (VWR Chemicals and Reagents Avantor), upon exposure of each cell line to six serial dilutions of the different compounds independently. Unexposed cells were included as viability controls, and cells exposed to 5-FU were included as cytotoxicity controls. Briefly, cells were adjusted to 200,000 cells/mL in the corresponding supplemented culture medium, and 100 μL (20,000 cells/well) were dispensed into each 96-well cell culture plate (Nunc, Thermo Fisher Scientific). Twelve hours after seeding the monolayer, 100 μL dilution of each compound was added to each well; the plates containing CRC were incubated at 37°C in the absence of CO2, while plates with PBMCs and MCRT were incubated at 37°C and 5% CO2 atmosphere. For MCRT, each piece was placed into each well of a 96-well plate and exposed to each dilution of the FQASs and QASs. After 48 h of incubation, 30 μL/well of MTT (5 mg/mL) was added, and plates were left at 37°C for 3 h, protected from light. After this time, 100 μL/well of DMSO was added to solubilize the formazan crystals formed. Plates were read at 570 nm on a Varioskan plate reader (Thermo Fisher), and nonspecific absorbance was corrected by subtracting the optical densities (OD) of the blank solutions corresponding to the supplemented culture media (RPMI 1640, DMEM, or L-15 media) and 0.5% DMSO. Each concentration of the FQASs, QASs, and controls was evaluated in duplicate in three independent experiments.
(§4) The percentages of viability (equation (1)) and mortality (equation (2)) were calculated with the net OD:(1) % viability=OD treated cell÷nontreated cells×100, (2) % mortality=100−% viability.
(§5) The %mortality data for each compound concentration was recorded, and the median cytotoxic concentration (CC50), corresponding to the concentration at which 50% of cell death occurs, was calculated using GraphPad Prism 8 software (GraphPad, Software, Inc., La Jolla, CA, USA). […] Lastly, the index of selectivity (IS) was calculated by dividing the CC50 value obtained for control cells (MCRT and PBMCs) by the CC50 value obtained for each CRC cell phenotype using the formula: IS = CC50 (MCRT or PBMC) ÷ CC50 (SW948, SW48 or SW620).

[2] = MTT cytotoxicity, peripheral blood mononuclear cells; format: cell-based; conditions: human, peripheral blood mononuclear cells (PBMC); PBMC, nontumoral control, MTT, 48 h, mean ± SD
Description: as §1, §2, §3, §4, §5

[3] = Ex vivo MTT cytotoxicity, healthy murine colorectal tissue; format: cell-based, BALB/c mice; conditions: BALB/c, mouse, healthy murine colorectal tissue (MCRT) pieces, ex vivo, nontumoral control, MTT, 48 h, mean ± SD
Description: as §1, §2, §3, §4, §5

[4] = system: SW48 (Dukes' Type C, Grade IV, noninvasive colorectal adenocarcinoma); experiment: MTT cytotoxicity, SW48 cells; conditions: for CC50: Homo sapiens, SW48, 48 h, SW48 cells, MTT, 48 h, mean ± SD; for Index of selectivity MCRT / SW48: IS = CC50 MCRT ÷ CC50 SW48; for Index of selectivity PBMC / SW48: IS = CC50 PBMC ÷ CC50 SW48
Description: as §1, §2, §3, §4, §5

[5] = system: SW948 (Dukes' Type C, Grade III, premetastatic colorectal adenocarcinoma); experiment: MTT cytotoxicity, SW948 cells; conditions: for CC50: Homo sapiens, SW948, 48 h, SW948 cells, MTT, 48 h, mean ± SD; for Index of selectivity MCRT / SW948: IS = CC50 MCRT ÷ CC50 SW948; for Index of selectivity PBMC / SW948: IS = CC50 PBMC ÷ CC50 SW948
Description: as §1, §2, §3, §4, §5

[6] = system: CRC cell lines SW48, SW620, and SW948; experiment: MTT cytotoxicity across CRC cell lines (pooled statements, selectivity between lines); format: cell-based; conditions: for Index of selectivity SW48 vs. SW620: IS = CC50 SW48 ÷ CC50 SW620; for Index of selectivity SW948 vs. SW48: IS = CC50 SW948 ÷ CC50 SW48; for Index of selectivity SW948 vs. SW620: IS = CC50 SW948 ÷ CC50 SW620
Description: as §1, §2, §3, §4
The %mortality data for each compound concentration was recorded, and the median cytotoxic concentration (CC50), corresponding to the concentration at which 50% of cell death occurs, was calculated using GraphPad Prism 8 software (GraphPad, Software, Inc., La Jolla, CA, USA). […]

SMILES | CC50 ([1]; 48 h) [µM] | Index of selectivity MCRT / SW620 [1] | Index of selectivity PBMC / SW620 [1] | CC50 at 48 h [2] [µM] | CC50 at 48 h [3] [µM] | CC50 [4] [µM] | Index of selectivity MCRT / SW48 [4] | Index of selectivity PBMC / SW48 [4] | CC50 [5] [µM] | Index of selectivity MCRT / SW948 [5] | Index of selectivity PBMC / SW948 [5] | Index of selectivity SW48 vs. SW620 [6] | Index of selectivity SW948 vs. SW48 [6] | Index of selectivity SW948 vs. SW620 [6] | cytotoxicity level (high/moderate/low) [1] | CC50 ([1]; SW-620) [µM] | cytotoxicity level (high/moderate/low) [4] | cytotoxicity level (high/moderate/low) [5] | CC50 ([1]; SW-620, read-out: LC50 (Figure 2c)) [µM]
C[N+](C)(C)CCCC=C(c1cccc(F)c1)c1cccc(F)c1 [Compound 1] | 63.7 ± 15.3 | 3.3 | 0.5 | 29.8 ± 2.4 | 212 ± 4 | 105 ± 12 | 2.0 | 0.3 | 211 ± 7.4 | 1.0 | 0.1 | 1.7 | 2.0 | 3.3 |  |  |  |  | 
O=c1[nH]cc(F)c(=O)[nH]1 [Compound 5-FU, 5-fluorouracil, reference compound] | 30.3 ± 6 | 31.2 | 1.3 | 38.7 ± 7 | 945 ± 43.7 | 30.3 | 33.9 | 1.4 | 30.3 ± 5.2 | 31.2 | 1.3 | 0.9 | 1.1 | 1.0 | High | 27.9 | High | High | 
C[N+](C)(C)CCCC=C(c1cccc(C(F)(F)F)c1)c1cccc(C(F)(F)F)c1 [Compound 7] | 31.1 ± 0.2 | 4.0 | 1.5 | 46.3 ± 7.5 | 123 ± 9.2 | 81.4 ± 9.4 | 1.5 | 0.57 | 20 ± 0.8 | 6.2 | 2.3 | 2.6 | 0.2 |  |  |  |  |  | 
C[N+](C)(CCl)CCCC=C(c1ccc(C(F)(F)F)cc1)c1ccc(C(F)(F)F)cc1 [Compound 8] | 19.2 ± 3.5 | 5.3 | 2.2 | 42.3 ± 9.3 | 102 ± 5 | 50.8 ± 4 | 2.0 | 0.8 | 20.4 ± 6.2 | 5.0 | 2.1 | 2.6 | 0.4 | 1.1 |  |  |  |  | 
C[N+](C)(CI)CCCC=C(c1ccc(C(F)(F)F)cc1)c1ccc(C(F)(F)F)cc1 [Compound 9] | 32.2 ± 1 | 6.4 | 1.0 | 30.6 ± 2.1 | 206 ± 19.4 | 40.2 ± 6 | 5.1 | 0.8 | 20 ± 4.7 | 10.3 | 1.5 | 1.2 | 0.5 | 0.6 |  |  |  |  | 
C[N+](C)(CI)CCCCC=C(c1ccc(F)cc1)c1ccc(F)cc1 [Compound 4] | 52.5 ± 5.6 | 2.0 | 0.9 | 45.1 ± 7.3 | 107 ± 4.5 | 100 ± 3 | 1.1 | 0.45 | 72.8 ± 12.8 | 1.5 | 0.6 | 1.9 | 0.7 | 1.4 |  |  |  |  | 
C[N+](C)(CI)CCCC=C(c1cccc(C(F)(F)F)c1)c1cccc(C(F)(F)F)c1 [Compound 6] | 38.8 ± 2.1 | 3.3 | 1.2 | 44.8 ± 6.4 | 129 ± 11.3 | 55.5 ± 6.4 | 2.3 | 0.80 | 45.6 ± 3.6 | 2.8 | 1.0 | 1.4 |  |  |  |  |  |  | 
C[N+](C)(CI)CCCC=C(c1ccc(F)cc1)c1ccc(F)cc1 [Compound 2] |  | 7.3 | 1.3 | 35.6 ± 6.6 | 205 ± 14.5 | 75.7 ± 14.2 | 2.7 | 0.47 | 77.9 ± 9.1 | 2.6 | 0.5 | 2.7 | 1.0 | 2.8 |  |  |  |  | 28.1
C[N+](C)(CCl)CCCCC=C(c1ccc(C(F)(F)F)cc1)c1ccc(C(F)(F)F)cc1 [Compound 12] | 15.1 ± 1.5 | 7.3 | 2.7 | 40.5 ± 9.5 | 111 ± 16.7 | 48 ± 5.1 | 2.3 | 0.8 | 25 ± 4.8 | 4.4 | 1.6 | 3.2 | 0.5 | 1.7 | High |  | Moderate | High | 
C[N+](C)(CCl)CCCCC=C(c1ccc(F)cc1)c1ccc(F)cc1 [Compound 3] | 64.5 ± 8.1 | 2.0 | 0.6 | 39.7 ± 7.7 | 130 ± 20 | 125 ± 5.1 | 1.0 | 0.32 | 52.9 ± 13.8 | 2.5 | 0.8 | 1.9 | 0.4 | 0.8 |  |  |  |  | 
